Measured values reported in patent US10168342B2, “Lipid probes and uses thereof” (THE SCRIPPS RESEARCH INSTITUTE, priority 2015, dated 2019).
Like-named read-outs stand apart in the source and are kept apart here.

Legend:
NENF = biological target: T1, NENF (Homo sapiens, UniProt Q9UMX5); test: In vitro gel-based competition of AEA-DA probe labeling of NENF; assay type: binding; details: competitors 1-100 μM, NENF-transfected HEK293T lysates
T1 construct: Full-length cDNAs encoding for the each protein of interest were subcloned into pcDNA3.1 myc-His A; Myc (myc-His of pcDNA3.1 myc-His A); expressed in transfected cells; host or cells: HEK293T (lysates)
Procedure: Full-length cDNAs encoding for the each protein of interest were subcloned into pcDNA3.1 myc-His A (Invitrogen) or used directly for transfections if available in a eukaryotic expression vector. HEK293T cells were grown to ˜70% confluence under standard growth conditions before adding the appropriate cDNA [control cells (“mock”) received an equal amount of empty pcDNA3.1 myc-His A vector] and FuGENE 6 or X-tremeGENE HP (Roche) transfection reagent according to the manufacturer's instructions. Cells were incubated for 36-48 hours before labeling in situ or harvesting for in vitro experiments.
Cell lysates (1.0 mg/mL), the indicated lipid probe (2.5 or 5 μM) and, for recombinant NUCB1 competition experiments, purified hNUCB1 (250 nM) and CaCl2 (100 μM) were mixed on ice. […] The samples were then irradiated with UV light and subjected to previously described click chemistry conditions. As before, each reaction was quenched with 4×SDS loading buffer (17 μL), and proteins were resolved using SDS-PAGE (10% acrylamide gel) and analyzed by in-gel fluorescent scanning on a Hitachi FMBIO-II flatbed fluorescence scanner. NUCB1 competition was quantitatively assessed by measuring the fluorescent intensity of the corresponding gel band using ImageJ 1.48v and normalizing this value by a non-competed gel band to control for loading differences.
Metabolite data are shown as mean±SEM (n=3-5/group). Differences between two groups were determined using Student's t test (unpaired, two-tailed) and significance was denoted for P values<0.05.

[1] = biological target: T2, AEA-DA lipid probe targets in Neuro2a cells (Mus musculus, UniProt P45878); details: protein Fkbp2, Neuro2a cells
T2 sequence (P45878 23-140): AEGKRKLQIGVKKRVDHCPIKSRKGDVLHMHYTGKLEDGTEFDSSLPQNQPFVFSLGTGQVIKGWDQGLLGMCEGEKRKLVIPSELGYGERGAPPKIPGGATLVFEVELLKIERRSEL

T1 sequence (Q9UMX5 32-172, species assumed): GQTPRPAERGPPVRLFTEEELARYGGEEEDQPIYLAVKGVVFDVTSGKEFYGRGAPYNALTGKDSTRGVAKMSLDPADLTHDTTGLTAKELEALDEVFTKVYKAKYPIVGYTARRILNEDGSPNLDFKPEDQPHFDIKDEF

CCCCC/C=C\C/C=C\C/C=C\C/C=C\CCCC(=O)NCCO [AEA, anandamide, reference compound]
competition of AEA-DA probe labeling of recombinant NENF (NENF): competitively blocked

CN1CCN(C(=O)c2[nH]c3ccc([N+](=O)[O-])cc3c2-c2ccccc2)CC1 [MJN228, (4-Methylpiperazin-1-yl)(5-nitro-3-phenyl-1H-indol-2-yl)methanone]
SILAC ratio (AEA-DA competition) ([1]; competitor 10 μM): 1.1
SILAC ratio (AEA-DA competition) ([1]; competitor 25 μM): 1.6
SILAC ratio (AEA-DA competition) ([1]; competitor 100 μM): 1.1
